Measured values: patent US12060388B2, “Cell-penetrating peptides and methods of use thereof” (priority 2018, dated 2024)

Experiments:
HeLa-S3 cells = assay: CellTiter-Fluor viability assay; type: cell-based; settings: 14 μM for 4 or 24 hours
Protocol: HeLa-S3 cells were incubated with medium, medium plus vehicle, or medium plus 14 μM P16/16 for 4 or 24 hours. Viability assay was performed by using the CellTiter-Fluor viability assay protocol (Promega, Cat #G6082). Briefly, an equal volume of CellTiter-Fluor reagent was added to each well without removing the medium, mixed briefly, then incubated for one hour at 37° C. Fluorescence was measured by using a GloMax Explorer Multimode Microplate Reader (380-400 nmEx/505 nmEm). n.s., not significant.

HPV18 PsV = assay: Peptide inhibition of HPV18 PsV infection of HeLa-S3 cells, flow cytometry for HcRed; type: cell-based; settings: 14 μM peptide, MOI of one, 48 h.p.i.
Description: FIG. 18A (top) depicts sequences of L2 peptides. […] Amino acid substitutions in the CPP or RBS mutant peptides are shown in orange and blue, respectively. Bottom: RBS and flanking sequences of indicated HPV L2 proteins or DMT1-II. FIG. 18B depicts an inhibitory dose-response curve for P16/16 peptide. 5×10^4 HeLa-S3 in 24-well plates were pretreated with various concentrations of P16/16 for one hour prior to infection with HPV pseudovirus (PsV) at multiplicity of infection (MOI) of 1. Peptide was left in the medium for the duration of the experiment. Cells were assessed by flow cytometry to determine the fraction of cells expressing reporter protein HcRed at 48 hours post-infection (h.p.i.). […] Forty-eight h.p.i., cells were assessed by flow cytometry to determine fraction of cells expressing reporter protein HcRed. […] HaCaT keratinocytes were infected at MOI of 1 with HPV16 PsV in the presence and absence of 14 μM P16/16, and infectivity was assessed 48 h.p.i. by flow cytometry for HcRed fluorescence. […] Successful infection by HPV16 and HPV16 PsV was assessed by quantitative reverse transcription-PCR (qRT-PCR) for expression of HPV early region and HcRed mRNA, respectively, and normalized to infection by the cognate virus in the absence of peptide. Background signal determined with non-cognate primers was <0.01%. […]

retromer (Vps35) = target: T1, retromer (Vps35) (Homo sapiens, UniProt O75436+Q96QK1); assay: Biotinylated peptide pull-down from HeLa S3 lysate, blot for Vps35; type: binding; settings: streptavidin pull-down
T1 construct: endogenous in cells; host or cells: HeLa S3 lysate (RIPA-MOPS buffer)
Protocol: For peptide pull-down experiments, N-terminal biotinylated L2 peptides (sequences shown in FIG. 2A) were purchased from ABClonal Science (Woburn, MA) at >95% purity. L2 wild-type was dissolved initially in 30% acetic acid and DMSO (˜70 μl each), and then dissolved in sterile deionized water with 0.01% sodium azide. L2-6A, L2-3R and L2-DM were initially solubilized in a small amount of DMSO (˜70-80 μl) and then dissolved in sterile deionized water with 0.01% sodium azide. Peptide stocks (5 mg/ml) were aliquoted and stored at −20° C. HeLa S3 cells plated in six-well plates were lysed at ˜80% confluency with 500 μl RIPA-MOPS buffer (20 mM morpholinepropanesulfonic acid [pH 7.0], 150 mM NaCl, 1% Nonidet P-40, 1 mM EDTA, 1% deoxycholic acid, 0.1% sodium dodecyl sulfate [SDS]) supplemented with protease inhibitors (1×HALT protease and phosphatase inhibitor cocktail (Thermo Scientific, Waltham, MA; #78443)). The lysate was centrifuged at 14,000 rpm for 20 min, and the supernatant was incubated with 10 μg of a biotinylated peptide for two h at 4° C. Fifty μl of streptavidin agarose beads slurry (Pierce, Rockford, IL; #20349) was added, and the mixture was gently rocked for 45 min at 4° C. […] Samples were analyzed by SDS-PAGE and immunoblotting with antibody recognizing Vps35 (Abcam, Cambridge, MA; ab57632).

authentic HPV16 = assay: Inhibition of authentic HPV16 in HeLa cells, qRT-PCR for viral mRNA; type: cell-based; settings: 14 μM, HPV16 from organotypic raft cultures, qRT-PCR 48 h.p.i.
Protocol: To measure the inhibition of infection by authentic HPV16, HeLa cells were infected with 5 μL raft-derived HPV16 (obtained from Craig Meyers, Hershey Medical Center) or with HPV16 PsV in the presence and absence of 14 μM P16/16, and total RNA was isolated 48 h.p.i. by using the RNeasy kit following the manufacturer's instructions. RNA was reverse-transcribed into cDNA by iScript cDNA Synthesis kit. The cDNA was quantified in triplicate by using SYBR Green Supermix real-time PCR detection system and primers for HPV16 E7 or HcRed. Actin mRNA were used for normalization.

CC[C@H](C)[C@H](NC(=O)[C@@H](NC(=O)[C@H](Cc1ccc(O)cc1)NC(=O)[C@H](CCC(N)=O)NC(=O)[C@@H]1CCCN1C(=O)[C@H](CO)NC(=O)[C@@H](N)CS)[C@@H](C)O)C(=O)N[C@H](C(=O)N[C@@H](C)C(=O)N[C@@H](CC(=O)O)C(=O)N[C@@H](C)C(=O)NCC(=O)N[C@@H](CC(=O)O)C(=O)N[C@@H](Cc1ccccc1)C(=O)N[C@@H](Cc1ccc(O)cc1)C(=O)N[C@@H](CC(C)C)C(=O)N[C@@H](Cc1c[nH]cn1)C(=O)N1CCC[C@H]1C(=O)N[C@@H](CO)C(=O)N[C@@H](Cc1ccc(O)cc1)C(=O)N[C@@H](Cc1ccc(O)cc1)C(=O)N[C@@H](CCSC)C(=O)N[C@@H](CC(C)C)C(=O)N[C@@H](CCCNC(=N)N)C(=O)N[C@@H](CCCCN)C(=O)N[C@@H](CCCNC(=N)N)C(=O)N[C@@H](CCCNC(=N)N)C(=O)N[C@@H](CCCCN)C(=O)N[C@@H](CCCNC(=N)N)C(=O)O)[C@@H](C)CC [P16/16]
toxicity (morphology and cell viability assay) (HeLa-S3 cells): no apparent toxicity | inhibition of HPV18 PsV infection (HPV18 PsV): potently inhibited infection | retromer binding of L2 peptide in vitro (retromer (Vps35)): competent for retromer binding in vitro | inhibition of authentic HPV16 (authentic HPV16): inhibited
